# Laboratory results as given in paper PMC4573335 (Biochemistry, 2015).
# Molecular target: T1, hALAS2 (human erythroid-specific 5-aminolevulinate synthase) (Homo sapiens, UniProt P22557)
# T1 sequence (P22557 80-587): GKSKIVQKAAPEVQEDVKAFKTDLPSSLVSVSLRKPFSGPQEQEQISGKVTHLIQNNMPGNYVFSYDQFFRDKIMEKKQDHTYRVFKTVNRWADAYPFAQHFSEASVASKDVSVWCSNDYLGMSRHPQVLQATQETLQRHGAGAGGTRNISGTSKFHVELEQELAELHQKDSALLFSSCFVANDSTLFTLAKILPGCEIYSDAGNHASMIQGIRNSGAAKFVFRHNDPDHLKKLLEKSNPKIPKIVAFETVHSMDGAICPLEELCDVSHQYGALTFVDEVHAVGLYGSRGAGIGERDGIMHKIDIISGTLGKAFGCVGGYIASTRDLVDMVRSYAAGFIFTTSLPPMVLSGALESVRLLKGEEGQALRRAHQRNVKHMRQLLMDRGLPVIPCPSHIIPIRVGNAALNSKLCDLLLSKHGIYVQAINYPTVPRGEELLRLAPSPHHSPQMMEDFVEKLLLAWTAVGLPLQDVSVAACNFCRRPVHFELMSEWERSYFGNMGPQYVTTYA
# Assay: absorption spectroscopy, A420/A330 ratio
# Format: binding
# Settings: PLP holoenzyme
compound,measurement,value
NCC(=O)O [glycine],"absorption spectroscopy, A420/A330 ratio (PLP-glycine aldimine)","In all cases, the A420/A330 ratio was increased upon reaction with glycine"
